The text below walks through data of publication PMC5836806 (Bioorganic & medicinal chemistry letters, 2018).

For experiment [1], the target named is T1, human mPGES-1 (Homo sapiens, UniProt O14684).
T1 sequence (O14684 1-152): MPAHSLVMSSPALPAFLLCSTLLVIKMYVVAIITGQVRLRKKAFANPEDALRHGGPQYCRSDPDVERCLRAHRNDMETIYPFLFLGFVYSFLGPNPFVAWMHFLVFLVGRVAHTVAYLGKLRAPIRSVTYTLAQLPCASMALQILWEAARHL
As to the kind of experiment: in vitro inhibition of human mPGES-1. Type of experiment: biochemical. The note with it: Table 2.

In experiment [2] the test system is COX-1/2 (mixed COX-1 and COX-2). Nature of the experiment: inhibition of mixed COX-1 and COX-2. Type of experiment: biochemical. The note with it: summary.

With `CCCCCCOc1ccc(-c2nn(-c3ccc(Cl)cc3)cc2C=C(C#N)C#N)cc1` [14b], the “activity against human mPGES-1 in words” value in experiment [1] was “not very active”.
Still for that read-out and setting: then `CCOc1ccc(-c2nn(-c3ccc(Cl)cc3)cc2/C=C(\C#N)C(=O)O)cc1` [13a], with “submicromolar potency”; and `CCOc1ccc(-c2nn(-c3ccc(Cl)cc3)cc2/C=C(\C#N)C(N)=O)cc1` [13c], with “not very active”.
With `CCCCCCOc1ccc(-c2nn(-c3ccc(Cl)cc3)cc2/C=C2/SC(=O)N(CC(=O)O)C2=O)cc1` [14f], in experiment [2], the “inhibition against COX-1/2 in words” value is listed as “without significant inhibition”.
Take `CCCCCCOc1ccc(-c2nn(-c3ccc(Cl)cc3)cc2/C=C(\C#N)C(N)=O)cc1` [14c]: the “activity against human mPGES-1 in words” value in experiment [1] is “not very active”.
On the same count and under the same terms, the same measure for `CCOc1ccc(-c2nn(-c3ccc(Cl)cc3)cc2C=C(C#N)C#N)cc1` [13b]: “not very active”; for `CCCCCCOc1ccc(-c2nn(-c3ccc(Cl)cc3)cc2/C=C(\C#N)C(=O)O)cc1` [14a]: “submicromolar potency”.
